From ChEMBL document CHEMBL3297661, “1-Substituted-5-[(3,5-dinitrobenzyl)sulfanyl]-1H-tetrazoles and their isosteric analogs: A new class of selective antitubercular agents active against drug-susceptible and multidrug-resistant mycobacteria” (Eur J Med Chem, 2014)
Converted amounts (≈) assume the structure as drawn.

Assays:
Format in all cases: functional
[1] = test system: Mycobacterium kansasii; experiment: Antimycobacterial activity against Mycobacterium kansasii CNCTC My 235/80 after 7 days by micromethod; conditions: CNCTC My 235/80, 168 h
[2] = test system: Mycobacterium avium; experiment: Antimycobacterial activity against Mycobacterium avium CNCTC My 330/88 after 21 days by micromethod; conditions: CNCTC My 330/88, 504 h
[3] = test system: Mycobacterium kansasii; experiment: Antimycobacterial activity against Mycobacterium kansasii 6509/96 after 21 days by micromethod; conditions: 6509/96, 504 h
[4] = test system: Mycobacterium tuberculosis; experiment: Antimycobacterial activity against Mycobacterium tuberculosis CNCTC My 331/88 after 14 days by micromethod; conditions: CNCTC My 331/88, 336 h
[5] = test system: Mycobacterium tuberculosis; experiment: Antimycobacterial activity against Mycobacterium tuberculosis CNCTC My 331/88 after 21 days by micromethod; conditions: CNCTC My 331/88, 504 h
[6] = test system: Mycobacterium avium; experiment: Antimycobacterial activity against Mycobacterium avium CNCTC My 330/88 after 14 days by micromethod; conditions: CNCTC My 330/88, 336 h
[7] = test system: Mycobacterium kansasii; experiment: Antimycobacterial activity against Mycobacterium kansasii CNCTC My 235/80 after 21 days by micromethod; conditions: CNCTC My 235/80, 504 h
[8] = test system: Mycobacterium kansasii; experiment: Antimycobacterial activity against Mycobacterium kansasii 6509/96 after 14 days by micromethod; conditions: 6509/96, 336 h
[9] = test system: Mycobacterium kansasii; experiment: Antimycobacterial activity against Mycobacterium kansasii CNCTC My 235/80 after 14 days by micromethod; conditions: CNCTC My 235/80, 336 h
[10] = test system: Mycobacterium kansasii; experiment: Antimycobacterial activity against Mycobacterium kansasii 6509/96 after 7 days by micromethod; conditions: 6509/96, 168 h

| SMILES | MIC [1] [µM] | MIC [2] [µM] | MIC [3] [µM] | MIC [4] [µM] | MIC [5] [µM] | MIC [6] [µM] | MIC [7] [µM] | MIC [8] [µM] | MIC [9] [µM] | MIC [10] [µM] |
| --- | --- | --- | --- | --- | --- | --- | --- | --- | --- | --- |
| O=[N+]([O-])c1cc(C[Se]c2nnnn2-c2ccccc2)cc([N+](=O)[O-])c1 | 8 (≈ 3.24 µg/mL) | 32 (≈ 13 µg/mL) | 32 (≈ 13 µg/mL) | 8 (≈ 3.24 µg/mL) | 8 (≈ 3.24 µg/mL) | 32 (≈ 13 µg/mL) | 16 (≈ 6.48 µg/mL) | 16 (≈ 6.48 µg/mL) | 8 (≈ 3.24 µg/mL) | 16 (≈ 6.48 µg/mL) |
| O=[N+]([O-])c1ccc(CSc2nnnn2-c2ccc([N+](=O)[O-])cc2)cc1 | 250 (≈ 89.6 µg/mL) | 250 (≈ 89.6 µg/mL) | 250 (≈ 89.6 µg/mL) | 250 (≈ 89.6 µg/mL) | 250 (≈ 89.6 µg/mL) | 250 (≈ 89.6 µg/mL) | 250 (≈ 89.6 µg/mL) | 250 (≈ 89.6 µg/mL) | 250 (≈ 89.6 µg/mL) | 250 (≈ 89.6 µg/mL) |
| O=[N+]([O-])c1cc(CSc2nnn[nH]2)cc([N+](=O)[O-])c1 | 250 (≈ 70.6 µg/mL) | 1000 (≈ 282 µg/mL) | 500 (≈ 141 µg/mL) | 1000 (≈ 282 µg/mL) | 1000 (≈ 282 µg/mL) | 1000 (≈ 282 µg/mL) | 1000 (≈ 282 µg/mL) | 500 (≈ 141 µg/mL) | 1000 (≈ 282 µg/mL) | 250 (≈ 70.6 µg/mL) |
| c1ccc(C[Se]c2nnnn2-c2ccccc2)cc1 | 2 (≈ 0.63 µg/mL) | 125 (≈ 39.4 µg/mL) | 250 (≈ 78.8 µg/mL) | 125 (≈ 39.4 µg/mL) | 125 (≈ 39.4 µg/mL) | 62 (≈ 19.5 µg/mL) | 16 (≈ 5.04 µg/mL) | 125 (≈ 39.4 µg/mL) | 8 (≈ 2.52 µg/mL) | 32 (≈ 10.1 µg/mL) |
| COc1ccccc1-n1nnnc1SCc1cc([N+](=O)[O-])cc([N+](=O)[O-])c1 | 125 (≈ 48.5 µg/mL) | 125 (≈ 48.5 µg/mL) | 125 (≈ 48.5 µg/mL) | 125 (≈ 48.5 µg/mL) | 125 (≈ 48.5 µg/mL) | 125 (≈ 48.5 µg/mL) | 125 (≈ 48.5 µg/mL) | 125 (≈ 48.5 µg/mL) | 125 (≈ 48.5 µg/mL) | 125 (≈ 48.5 µg/mL) |
| N#CSCc1cc([N+](=O)[O-])cc([N+](=O)[O-])c1 | 2 (≈ 0.478 µg/mL) | 62 (≈ 14.8 µg/mL) | 16 (≈ 3.83 µg/mL) | 4 (≈ 0.957 µg/mL) | 4 (≈ 0.957 µg/mL) | 32 (≈ 7.65 µg/mL) | 16 (≈ 3.83 µg/mL) | 8 (≈ 1.91 µg/mL) | 8 (≈ 1.91 µg/mL) | 4 (≈ 0.957 µg/mL) |
| O=[N+]([O-])c1cc(C[Se]c2nnnn2-c2ccc(Br)cc2)cc([N+](=O)[O-])c1 | 2 (≈ 0.968 µg/mL) | 125 (≈ 60.5 µg/mL) | 8 (≈ 3.87 µg/mL) | 2 (≈ 0.968 µg/mL) | 2 (≈ 0.968 µg/mL) | 125 (≈ 60.5 µg/mL) | 4 (≈ 1.94 µg/mL) | 4 (≈ 1.94 µg/mL) | 4 (≈ 1.94 µg/mL) | 2 (≈ 0.968 µg/mL) |
| O=[N+]([O-])c1cc(CSc2nnnn2C23CC4CC(CC(C4)C2)C3)cc([N+](=O)[O-])c1 | 4 (≈ 1.67 µg/mL) | 500 (≈ 208 µg/mL) | 8 (≈ 3.33 µg/mL) | 4 (≈ 1.67 µg/mL) | 4 (≈ 1.67 µg/mL) | 500 (≈ 208 µg/mL) | 16 (≈ 6.66 µg/mL) | 8 (≈ 3.33 µg/mL) | 8 (≈ 3.33 µg/mL) | 8 (≈ 3.33 µg/mL) |
| Cc1ccc(-n2nnnc2SCc2cc([N+](=O)[O-])cc([N+](=O)[O-])c2)cc1C | 250 (≈ 96.6 µg/mL) | 250 (≈ 96.6 µg/mL) | 250 (≈ 96.6 µg/mL) | 500 (≈ 193 µg/mL) | 500 (≈ 193 µg/mL) | 250 (≈ 96.6 µg/mL) | 250 (≈ 96.6 µg/mL) | 250 (≈ 96.6 µg/mL) | 250 (≈ 96.6 µg/mL) | 250 (≈ 96.6 µg/mL) |
| O=[N+]([O-])c1cc(CS(=O)(=O)c2nnnn2-c2ccccc2)cc([N+](=O)[O-])c1 | 32 (≈ 12.5 µg/mL) | 125 (≈ 48.8 µg/mL) | 62 (≈ 24.2 µg/mL) | 8 (≈ 3.12 µg/mL) | 8 (≈ 3.12 µg/mL) | 62 (≈ 24.2 µg/mL) | 62 (≈ 24.2 µg/mL) | 62 (≈ 24.2 µg/mL) | 62 (≈ 24.2 µg/mL) | 32 (≈ 12.5 µg/mL) |
| CCCCCCCCCCCCCCCCSCc1cc([N+](=O)[O-])cc([N+](=O)[O-])c1 | 500 (≈ 219 µg/mL) | 1000 (≈ 439 µg/mL) | 500 (≈ 219 µg/mL) | 1000 (≈ 439 µg/mL) | 1000 (≈ 439 µg/mL) | 1000 (≈ 439 µg/mL) | 500 (≈ 219 µg/mL) | 500 (≈ 219 µg/mL) | 500 (≈ 219 µg/mL) | 500 (≈ 219 µg/mL) |
| COc1ccc(-n2nnnc2SCc2ccc([N+](=O)[O-])cc2[N+](=O)[O-])cc1 | 32 (≈ 12.4 µg/mL) | 62 (≈ 24.1 µg/mL) | 32 (≈ 12.4 µg/mL) | 8 (≈ 3.11 µg/mL) | 8 (≈ 3.11 µg/mL) | 62 (≈ 24.1 µg/mL) | 62 (≈ 24.1 µg/mL) | 16 (≈ 6.21 µg/mL) | 62 (≈ 24.1 µg/mL) | 8 (≈ 3.11 µg/mL) |
| O=[N+]([O-])c1cc(CSc2nnnn2-c2ccc(Br)cc2)cc([N+](=O)[O-])c1 | 1 (≈ 0.437 µg/mL) | 125 (≈ 54.7 µg/mL) | 4 (≈ 1.75 µg/mL) | 1 (≈ 0.437 µg/mL) | 1 (≈ 0.437 µg/mL) | 125 (≈ 54.7 µg/mL) | 2 (≈ 0.874 µg/mL) | 4 (≈ 1.75 µg/mL) | 2 (≈ 0.874 µg/mL) | 2 (≈ 0.874 µg/mL) |
| Nn1nnnc1SCc1cc([N+](=O)[O-])cc([N+](=O)[O-])c1 | 8 (≈ 2.38 µg/mL) | 1000 (≈ 297 µg/mL) | 32 (≈ 9.51 µg/mL) | 8 (≈ 2.38 µg/mL) | 16 (≈ 4.76 µg/mL) | 1000 (≈ 297 µg/mL) | 32 (≈ 9.51 µg/mL) | 32 (≈ 9.51 µg/mL) | 32 (≈ 9.51 µg/mL) | 16 (≈ 4.76 µg/mL) |
| O=[N+]([O-])c1cc(COc2nnnn2-c2ccccc2)cc([N+](=O)[O-])c1 | 8 (≈ 2.74 µg/mL) | 125 (≈ 42.8 µg/mL) | 32 (≈ 11 µg/mL) | 2 (≈ 0.685 µg/mL) | 4 (≈ 1.37 µg/mL) | 125 (≈ 42.8 µg/mL) | 32 (≈ 11 µg/mL) | 16 (≈ 5.48 µg/mL) | 16 (≈ 5.48 µg/mL) | 8 (≈ 2.74 µg/mL) |
